These results are taken from patent publication US5428041A, “Antihypercholesterolemic bis-trifluoromethyl-substituted imidazolines and derivatives thereof” (The Du Pont Merck Pharmaceutical Company, priority 1992, dated 1995).

One may read the IC50 as the concentration that gives 50% inhibition.

The nature of data set [1]: Water solubility of polymorphs. The format is physicochemical. As to conditions: compared with the higher melting polymorph.
Data set [2] is described as follows: Oral bioavailability of polymorphs. In kind it is in vivo. As to conditions: compared to the higher melting form.
Another data set concerns ACAT. The experiment in a line: Systemic ACAT inhibitory activity. The format is in vivo. Particulars: oral, compared to the higher melting form.
Data set [3] concerns the target T1, Acyl-CoA: Cholesterol Acyltransferase (ACAT) (Rattus norvegicus, UniProt Q7TQM4).
T1 construct: centrifuged at 105,000×g for 1 hour to pellet the microsomes; from tissue; host or cells: liver microsomes of fasted male Sprague Dawley rats
T1 sequence (Q7TQM4 1-524): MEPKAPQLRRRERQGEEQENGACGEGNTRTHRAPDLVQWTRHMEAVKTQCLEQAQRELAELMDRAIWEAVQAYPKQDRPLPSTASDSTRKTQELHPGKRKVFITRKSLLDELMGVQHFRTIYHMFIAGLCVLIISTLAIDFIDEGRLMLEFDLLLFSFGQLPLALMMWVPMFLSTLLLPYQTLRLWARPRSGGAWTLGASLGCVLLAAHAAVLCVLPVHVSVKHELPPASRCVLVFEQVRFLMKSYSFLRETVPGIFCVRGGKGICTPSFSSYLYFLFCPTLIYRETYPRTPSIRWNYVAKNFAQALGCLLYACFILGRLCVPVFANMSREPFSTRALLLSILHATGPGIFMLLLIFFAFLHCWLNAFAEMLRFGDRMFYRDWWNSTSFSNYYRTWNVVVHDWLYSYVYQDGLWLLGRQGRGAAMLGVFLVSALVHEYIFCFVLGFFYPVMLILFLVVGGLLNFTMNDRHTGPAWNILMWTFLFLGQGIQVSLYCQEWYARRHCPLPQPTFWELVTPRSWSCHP
Description: Inhibition of Acyl-CoA:Cholesterol Acyltransferase (ACAT) in hepatic microsomes. In kind it is biochemical, Sprague Dawley rat. Particulars: rat hepatic microsomes, 14C-oleoyl-CoA, 37° C., pH 7.4; read-out: In Vitro ACAT IC50. On the procedure: A. Assay of the Inhibition of Acyl-CoA: Cholesterol Acyltransferase (ACAT) in Hepatic Microsomes
The ability of the compounds to inhibit ACAT, the enzyme responsible for the intracellular synthesis of cholesteryl esters, was tested as follows. Male Sprague Dawley rates weighing 150-300 g were fed rat chow ad libitum. The animals were fasted for twenty-four hours prior to being sacrificed by decapitation. The livers were perfused in situ with 50 ml of cold 0.25M sucrose, excised and homogenized in three volumes of 0.1M phosphate buffer, pH 7.4, that contained 0.5 mM EDTA (ethylenediaminetetraacetic acid), 1.0 mM glutathione, 0.25M sucrose and 20 mM leupeptin. Microsomes were obtained by differential centrifugation; the supernatant from an initial spin at 15,000×g for 15 minutes was centrifuged at 105,000×g for 1 hour to pellet the microsomes. The microsomes were suspended in homogenization buffer, reisolated by centrifugation, and stored at -70° C. Microsomes were used within one month of preparation.
The control assay in a final volume of 200 μl consisted of 200 μg of microsomal protein, 75 μM ^14 C-oleoyl-CoA (10,000 dpm/nmol) in 0.1M phosphate, pH 7.4, that contained 1 mM glutathione. Compounds were added in 5-10 μl of DMSO (dimethyl sulfoxide or ethanol) and additional controls were run with DMSO or ethanol only. All components, except the oleoyl-CoA, were preincubated for 15 min. at 37° C. prior to the initiation of the reaction by the addition of oleoyl CoA. The assay was terminated after 10 min by the addition of 4 ml of chloroform:methanol (2:1, v/v). 20,000 dpm of ^3 H-cholesteryl oleate and 10 μg of unlabeled cholesteryl oleate and oleic acid were added as an internal standard and carrier, respectively. After allowing 10 min. for lipid extraction, 0.8 ml of deionized water was added to separate the solution into two phases. The lower chloroform phase was collected, dried under nitrogen and resuspended in 100 μl of chloroform. The sample containing the neutral lipids was spotted onto a Gelman ITLC-SA polysilicic acid gel-impregnated sheet, which was developed using a hexane: diethyl ether: acetic acid (170:30:1 v/v/v) mobile phase. The lipids were visualized by their interaction with iodine vapor and the cholesteryl ester spot was scraped into a scintillation vial and counted. The specific activity of ACAT in the control incubation averaged 260 pmol/min/mg microsomal protein. The inhibition of ACAT activity by the compounds is shown in Table 7; the data are expressed as the concentration at which ACAT activity is inhibited by 50% (IC50).

The subject of data set [4] is murine macrophage-like cell line J744.A1. The experiment in a line: Inhibition of cholesterol esterification in mammalian cells (macrophage). As to conditions: Mus musculus; J744.A1 macrophage-like cells loaded with ac-LDL, 14C oleic acid. The format is cell-based. On the procedure: B. Assay of the Inhibition of Cholesterol Esterification in Mammalian Cells The esterification of cholesterol was determined in the murine macrophage-like cell line J744.A1. Cells were seeded in 35 mm wells at a density of 300,000 cells per well in 2 mls of Dulbecco's Modified Eagle Medium (DMEM) supplemented with 10% fetal bovine serum (FBS). Cells were incubated at 37° C. in an atmosphere of 5% CO2 and 93% humidity. After 24 hours the media was changed to 0.68 mls 10% FBS-DMEM containing 34 μg of acetylated human low density lipoprotein (ac-LDL) to increase the intracellular concentration of cholesterol and promote esterification. At 41 hours, various inhibitors were added to the cells in DMSO (10 μl/ml maximum). At 43 hours, the cells were pulsed with 0.1 mM ^14 C oleic acid (10,000 dpm/nmol) complexed with BSA (bovine serum albumin) to follow cholesterol ester formation. The experiment was terminated at 45 hours by washing the monolayers 3 times with 3 ml of Tris-buffered saline at 4° C. The lipids were extracted by incubating the monolayers with 1.5 ml of hexane: isopropanol (3:2, v/v) for 30 min. under gentle agitation. During this period, 10,000 dpm ^3 H-cholesteryl linoleate and 10 μg of cholesteryl oleate were added as an internal standard and carrier respectively. The organic solvent was remoted and the cells were washed with an additional 1.0 ml of hexane: isopropanol which was combined with the original extract. The cells were allowed to dry overnight, digested with 1.5 ml of 0.2 N sodium hydroxide for 1 hour and an aliquot of the solubilized protein used for protein determination using the Lowry method. […] Individual lipids were visualized with iodine and the cholesteryl ester spot cut out and transferred to scintillation vials to determine the amount of radioactivity.

Counter-ions that a name gives are not always drawn.

As to `CN(C(=O)c1ccc(C#N)cc1)C1N(C)C(c2ccc(C#N)cc2)=NC1(C(F)(F)F)C(F)(F)F` (centres unmarked) [132°-134° melting polymorph, N-[4,4-bis[trifluoromethyl)-4,5-dihydro-1-methyl-2-[4-cyanophenyl]-1H-imidazol-5-yl]-N-methyl-4-cyanobenzamide], in data set [1], the “water solubility relative to the 181°-183° C. melting polymorph” value came out at 3 fold. Moreover, the oral bioavailability result in data set [2] is listed as “greater oral bioavailability”. For the same compound, in the data set on ACAT, the “systemic ACAT inhibitory activity” value is reported as “improved systemic ACAT inhibitory activity”.

Consider `CC(C)c1ccc(NC(=O)N(C)C2N(C)C(c3ccc(F)cc3)=NC2(C(F)(F)F)C(F)(F)F)cc1` (centres unmarked) [Example 27, N-[4,4-bis(trifluoromethyl)-2-(4-fluorophenyl)-4,5-dihydro-1-methyl-1H-imidazol-5-yl]-N'-4-isopropylphenyl-N-methylurea], for which the IC50 in data set [3] was 3 µM; in data set [4] it was 16 µM.

As for `CN1C(c2ccc(N3CCCCC3)cc2)=NC(C(F)(F)F)(C(F)(F)F)C1NC(=O)c1ccc(F)cc1` (centres unmarked) [Example 32, N-[4,4-bis(trifluoromethyl)-4,5-dihydro-1-methyl-2-[4-(1-piperidinyl)phenyl]-1H-imidazol-5-yl]-4-fluorobenzamide], the IC50 in data set [3] is 2 µM; in data set [4], 17 µM.

Regarding `CN(C(=O)c1ccc(C#N)cc1)C1N(C)C(c2ccc(C#N)cc2)=NC1(C(F)(F)F)C(F)(F)F` (centres unmarked) [Example R, N-[4,4-bis(trifluoromethyl)-4,5-dihydro-1-methyl-2-[4-cyanophenyl]-1H-imidazol-5-yl]-N-methyl-4-cyanobenzamide], the figures for the half-maximal inhibitory concentration (IC50) in data set [3] and in data set [4] were 2 µM and 13 µM, respectively.

Take `CCCCCCC(=O)N(C)C1N(C)C(c2ccc(N3CCCCC3)cc2)=NC1(C(F)(F)F)C(F)(F)F` (centres unmarked) [Example 33, N-[4,4-bis(trifluoromethyl)-4,5-dihydro-1-methyl-2-[4-(1-piperidinyl)phenyl]-1H-imidazol-5-yl]-N-methylheptanamide, hydrochloride]: the IC50 in data set [3] was determined as 10 µM; in data set [4], 13 µM.

For `CN(C(=O)C12CCC(C)(C(=O)O1)C2(C)C)C1N(C)C(c2ccc(F)cc2)=NC1(C(F)(F)F)C(F)(F)F` (centres unmarked) [Example 26], the IC50 came to 45 µM in data set [3] and 96 µM in data set [4].

Regarding `CCCCOc1ccc(C(=O)N(C)C2N(C)C(c3ccc(F)cc3)=NC2(C(F)(F)F)C(F)(F)F)cc1` (centres unmarked) [Example 11, N-[4,4-bis(trifluoromethyl)-2-(4-fluorophenyl)-4,5-dihydro-1-methyl-1H-imidazol-5-yl]-4-butoxy-N-methylbenzamide], the figures for the concentration for half-maximal inhibition (IC50) in data set [3] and in data set [4] were 2 µM and 14 µM, respectively.

Regarding `CN(C(=O)c1ccc([N+](=O)[O-])cc1)C1N(C)C(c2ccc(F)cc2)=NC1(C(F)(F)F)C(F)(F)F` (centres unmarked) [Example 14, N-[4,4-bis(trifluoromethyl)-2-(4-fluorophenyl)-4,5-dihydro-1-methyl-1H-imidazol-5-yl]-N-methyl-4-nitrobenzamide], the IC50 stood at 8 µM in data set [3] and 18 µM in data set [4].
